Converted amounts (≈) assume the structure as drawn. Residues, ends and D or L forms follow the SMILES beside them.
What was measured:
[1] = system: C. neoformans ATCC 208821; assay: microbe, parasite or virus in culture; assay type: cell-based, Cryptococcus neoformans
Protocol: (§1) Both antibacterial and antifungal MIC assays were performed by a broth microdilution plate based method as per CLSI guidelines for antimicrobial susceptibility testing.[53],[54] […] Full assay details are included in the Supporting Information with a full list of strains tested in Table S1.
(§2) Antibacterial assay (Minimum Inhibitory Concentration [MIC]).
(§3) MIC assay was performed by a broth microdilution plate based method as per CLSI guidelines for antimicrobial susceptibility testing of aerobic bacteria.1 Compounds were prepared at 1.28 mg/mL solution in water. The tested strains, Table S1, were cultured in Luria broth (LB) (In Vitro Technologies, USB75852), at 37 °C overnight. A sample of culture was then diluted 40Pfold in fresh Muller Hinton broth (MHB) (Bacto laboratories, 211443) and incubated at 37 °C for 1.5P2 h. The compounds were serially diluted twoPfold across the wells, with compound concentrations ranging from 0.015 µg/mL to 512 µg/mL, plated in duplicate. The resultant midPlog phase cultures were diluted to the final concentration of 1×10^6 CFU/mL, then 50 µL was added to each well of the compoundP containing 96Pwell plates (Corning 3641, NonPbinding Surface [NBS]), giving a final compound concentration range of 0.008 µg/mL to 256 µg/mL and 5x10^5 CFU/mL. All the plates were covered and incubated at 37 °C for 18 h. MICs were determined visually, being defined as the lowest concentration showing no visible growth. Resazurin was added at 0.001% final concentration to each well and incubated for 2 h before MICs were rePread for confirmation using the colour change from blue to pink to indicate wells containing viable cells. The resazurin assay was added in some wells where some form of precipitate was present in otherwise clear wells, making it difficult to ascertain which wells had visible […]
Antifungal assay (Minimum Inhibitory Concentration [MIC]). MIC assay was performed by a broth microdilution plate based method as per CLSI guidelines for antimicrobial susceptibility testing.2 Fungi strains, Table S1, were cultured for 3 days on Yeast ExtractPPeptone Dextrose (YPD) (SigmaPAldrich, Y1500) agar at 30 °C. A yeast suspension of 1x10^6 to 5x10^6 CFU/mL was prepared from five colonies. These stock suspensions were diluted with Yeast Nitrogen Base (YNB) (Becton Dickinson, 233520) broth to a final concentration of 2.5 ×10^3 CFU/mL. All samples, compounds and standards were plated in 96Pwell plates (Corning 3641, NonPbinding Surface [NBS]), by adding 10 µL of 1.28 mg/mL stock solution to each well and 90 µL of media. Then, the samples were serial diluted (1:2) in 12 concentrations across the plate. The standard antifungal ranged from 256 […]
µg/mL to 0.12 µg/mL and compounds from 128 µg/mL to 0.06 µg/mL with final volumes of 50 µL per well, plated in duplicate. Then, 50 µL of the fungi suspension that was previously prepared in YNB broth to the final concentration of 2.5×10^3 CFU/mL, was added to each well of the compoundPcontaining plates, giving a final standard compound concentration range of 128 µg/mL to 0.06 µg/mL and tested compound from 64 µg/mL to 0.03 µg/mL. Plates were covered and incubated at 35 °C for 24 h. Candida albicans MICs were determined by measuring the absorbance at OD530. For Cryptococcus neoformans 10 µL of 0.06 % resazurin were added to the 24 h incubated plates. Then, these plates were incubated for another 3 h.
Cryptococcus neoformans MICs were determined by measuring the absorbance at OD570P600. […]

A. baumannii ATCC 19606 = assay type: cell-based, Acinetobacter baumannii; details: ATCC 19606
Protocol: as §1, §2, §3
(§4) Antifungal assay (Minimum Inhibitory Concentration [MIC]). MIC assay was performed by a broth microdilution plate based method as per CLSI guidelines for antimicrobial susceptibility testing.2 Fungi strains, Table S1, were cultured for 3 days on Yeast ExtractPPeptone Dextrose (YPD) (SigmaPAldrich, Y1500) agar at 30 °C. A yeast suspension of 1x10^6 to 5x10^6 CFU/mL was prepared from five colonies. These stock suspensions were diluted with Yeast Nitrogen Base (YNB) (Becton Dickinson, 233520) broth to a final concentration of 2.5 ×10^3 CFU/mL. All samples, compounds and standards were plated in 96Pwell plates (Corning 3641, NonPbinding Surface [NBS]), by adding 10 µL of 1.28 mg/mL stock solution to each well and 90 µL of media. Then, the samples were serial diluted (1:2) in 12 concentrations across the plate. The standard antifungal ranged from 256

P. aeruginosa ATCC 27853 = assay type: cell-based, Pseudomonas aeruginosa; details: ATCC 27853
Protocol: as §1, §2, §3, §4

[2] = system: E. coli ATCC 25922 (control strain); assay type: cell-based, Escherichia coli; details: ATCC 25922
Protocol: as §1, §2, §3, §4

E. coli MB 4902 (ΔlpxC) = assay type: cell-based, Escherichia coli; details: n = 4
Protocol: as §1, §2, §3, §4

[3] = system: E. coli ATCC 700926 (K12); assay type: cell-based, Escherichia coli; details: ATCC 700926
Protocol: as §1, §2, §3, §4

[4] = Plasma protein binding, ultrafiltration; assay type: in vitro ADME; details: 100% human plasma, read-out: PPB (%) (converted)
Protocol: Plasma protein binding was performed using an ultrafiltration method.[58]
Plasma protein binding assay
Plasma protein binding was performed using an Ultrafiltration method.13 Fresh frozen human plasma was pooled from O Negative (Product number 1274512) blood from the R & D division of the Australian Red Cross Blood Services (Brisbane). Stock solutions (20 mg/mL) of the test compounds were prepared in H2O. Test compounds (40 µg/mL) were incubated in 100 % human plasma at 37 °C for 30 min (1 mL volume). For unfiltered samples, an aliquot (50 µL) was removed, diluted with PBS (50 µL) and quenched with icePcold precipitating solution comprising 0.5 µM carbutamide MS internal standard in acetonitrile : methanol : formic acid (1: 1 : 0.001). Samples were incubated at 4 °C for 30 min then centrifuged at 14000 × g for 8 min, with the clear supernatant transferred to a vial for LC/MS/MS analysis.
For filtered samples, the plasma sample (250 µL) was filtered using Amicon UltraP0.5 Centrifugal Filter Devices 30K NMWL at 14000 × g for 7 min and then an aliquot (50 µL) was processed as described for unfiltered samples. The fraction of unbound compound was calculated by determining the concentration of the filtered sample and the concentration of unfiltered sample. All samples were performed in triplicate with sulfamethoxazole as a […]

SMILES	MIC ([1]; ATCC 208821)	MIC (A. baumannii ATCC 19606)	MIC (P. aeruginosa ATCC 27853)	MIC [2]	MIC (E. coli MB 4902 (ΔlpxC))	MIC [3]	fraction unbound [4]	MIC ([1]; C. neoformans ATCC 208821, n = 4)
CC(C)[C@@H]1NC(=O)[C@H](CCCNC(=N)N)NC(=O)[C@H](Cc2ccccc2)NC(=O)[C@@H](NC(=O)[C@H](Cc2c[nH]c3ccccc23)NC(=O)[C@H](CCCNC(=N)N)NC(=O)[C@@H](N)CCCNC(=N)N)CSSC[C@@H](C(=O)N[C@@H](CCCNC(=N)N)C(N)=O)NC(=O)[C@H](CCCCN)NC(=O)[C@H](CCCNC(=N)N)NC(=O)[C@H](Cc2ccc(O)cc2)NC(=O)[C@@H]2CSSC[C@H](NC1=O)C(=O)N[C@@H](Cc1ccc(O)cc1)C(=O)N[C@@H](CCCNC(=N)N)C(=O)NCC(=O)N[C@@H](Cc1ccccc1)C(=O)N2 [polyphemusin-1] (HELM PEPTIDE1{R.R.W.C.F.R.V.C.Y.R.G.F.C.Y.R.K.C.R.[am]}$PEPTIDE1,PEPTIDE1,4:R3-17:R3|PEPTIDE1,PEPTIDE1,8:R3-13:R3$$$V2.0)	0.06 µg/mL (≈ 0.0244 µM)	0.06 µg/mL (≈ 0.0244 µM)	2 µg/mL (≈ 0.815 µM)	0.5 µg/mL (≈ 0.204 µM)	0.03 µg/mL (≈ 0.0122 µM)	0.06 µg/mL (≈ 0.0244 µM)	0.37	
[H][C@]12CSSC[C@]([H])(NC(=O)[C@]([H])([C@@H](C)CC)NC(=O)CNC(=O)[C@H](CCCNC(=N)N)NC(=O)[C@H](Cc3ccc(O)cc3)NC1=O)C(=O)N[C@@H](Cc1ccc(O)cc1)C(=O)N[C@@H](CCCNC(=N)N)C(=O)N[C@@H](CCCNC(=N)N)C(=O)N[C@H](C(=O)N[C@@H](CCCNC(=N)N)C(N)=O)CSSC[C@H](NC(=O)[C@H](Cc1c[nH]c3ccccc13)NC(=O)[C@@H](N)CCCCN)C(=O)N[C@@H](Cc1ccccc1)C(=O)N[C@@H](CCCNC(=N)N)C(=O)N[C@@H](C(C)C)C(=O)N2 [tachyplesin-1] (HELM PEPTIDE1{K.W.C.F.R.V.C.Y.R.G.I.C.Y.R.R.C.R.[am]}$PEPTIDE1,PEPTIDE1,3:R3-16:R3|PEPTIDE1,PEPTIDE1,7:R3-12:R3$$$V2.0)	0.125 µg/mL (≈ 0.0552 µM)	0.125 µg/mL (≈ 0.0552 µM)	0.25 µg/mL (≈ 0.11 µM)	0.06 µg/mL (≈ 0.0265 µM)	0.016 µg/mL (≈ 0.00707 µM)	0.03 µg/mL (≈ 0.0133 µM)	0.24	
CC(C)[C@@H]1NC(=O)CNC(=O)[C@H](CC(N)=O)NC(=O)[C@H](CCCNC(=N)N)NC(=O)[C@H](Cc2ccc(O)cc2)NC(=O)[C@H](C(C)C)NC(=O)[C@@H]2CSSC[C@H](NC(=O)[C@H](C(C)C)NC(=O)[C@H](CCCNC(=N)N)NC1=O)C(=O)N[C@@H](Cc1ccc(O)cc1)C(=O)N[C@@H](CCCNC(=N)N)C(=O)N[C@@H](CCCNC(=N)N)C(=O)N[C@H](C(=O)N[C@@H](CC(N)=O)C(=O)O)CSSC[C@H](NC(=O)[C@H](Cc1ccccc1)NC(=O)CN)C(=O)N[C@@H](Cc1c[nH]c3ccccc13)C(=O)N[C@@H](Cc1ccc(O)cc1)C(=O)N[C@@H](C(C)C)C(=O)N2 [arenicin-3] (HELM PEPTIDE1{G.F.C.W.Y.V.C.V.Y.R.N.G.V.R.V.C.Y.R.R.C.N}$PEPTIDE1,PEPTIDE1,3:R3-20:R3|PEPTIDE1,PEPTIDE1,7:R3-16:R3$$$V2.0)	8 µg/mL (≈ 3.06 µM)	0.5 µg/mL (≈ 0.191 µM)	1 µg/mL (≈ 0.383 µM)	0.5 µg/mL (≈ 0.191 µM)	0.125 µg/mL (≈ 0.0478 µM)	0.25 µg/mL (≈ 0.0957 µM)	0.32	
CC[C@H](C)[C@H](NC(=O)[C@@H](NC(=O)[C@@H]1CCCN1C(=O)[C@@H](NC(=O)[C@@H]1CCCN1C(=O)[C@H](CCCCN)NC(=O)[C@H](CCCCN)NC(=O)[C@H](CO)NC(=O)CN)C(C)C)[C@@H](C)CC)C(=O)N[C@@H](Cc1ccc(O)cc1)C(=O)N[C@H]1CSSC[C@@H](C(=O)N[C@@H](CCC(N)=O)C(=O)N[C@@H](CCCNC(=N)N)C(=O)N[C@@H](CCSC)C(N)=O)NC(=O)[C@H](CCCCN)NC(=O)CNC(=O)[C@H]([C@@H](C)O)NC(=O)[C@H](CCCNC(=N)N)NC(=O)[C@H](CCCNC(=N)N)NC(=O)[C@H](CC(N)=O)NC1=O [thanatin]		>256 µg/mL	256 µg/mL (≈ 105 µM)	8 µg/mL (≈ 3.29 µM)	2 µg/mL (≈ 0.822 µM)	8 µg/mL (≈ 3.29 µM)	0.08	64 µg/mL (≈ 26.3 µM)

Reference: publication PMC4906375, “Contribution of Amphipathicity and Hydrophobicity to the Antimicrobial Activity and Cytotoxicity of β-Hairpin Peptides” (ACS Infectious Diseases, 2016)
